Experiments:
[1] = molecular target: T1, M2 -type muscarinic cholinergic receptor (Cavia porcellus, UniProt H0VRN8); assay: Affinity for the M2-type muscarinic cholinergic receptor, displacement of tritiated N-methylscopolamine (3H-NMS) on smooth guinea-pig ileum muscle homogenate; format: binding; conditions: guinea-pig ileum smooth muscle homogenate, 3H-NMS 0.3 nM, 20 minutes at 30° C., pH 7.5; read-out: IC50 3H-NMS (M2)
T1 construct: on a smooth guinea-pig ileum muscle homogenate; from tissue; host or cells: guinea-pig ileum smooth muscle homogenate
T1 sequence (H0VRN8 1-466): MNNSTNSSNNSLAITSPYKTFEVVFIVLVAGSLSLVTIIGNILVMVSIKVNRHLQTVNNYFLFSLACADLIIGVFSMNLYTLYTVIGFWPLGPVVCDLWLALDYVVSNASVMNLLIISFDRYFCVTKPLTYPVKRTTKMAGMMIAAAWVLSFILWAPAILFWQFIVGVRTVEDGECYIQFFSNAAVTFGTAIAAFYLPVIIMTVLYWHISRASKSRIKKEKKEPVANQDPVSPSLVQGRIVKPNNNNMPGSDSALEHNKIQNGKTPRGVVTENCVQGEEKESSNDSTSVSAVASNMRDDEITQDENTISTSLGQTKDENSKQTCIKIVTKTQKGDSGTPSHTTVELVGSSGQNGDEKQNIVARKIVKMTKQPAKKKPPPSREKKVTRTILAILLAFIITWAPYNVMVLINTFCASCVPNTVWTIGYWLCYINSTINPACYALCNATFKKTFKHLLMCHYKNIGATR
Protocol: The M1 -type receptors are concentrated in certain regions of the brain, such as the hippocampus, the cerebral cortex and the striatum, and also in the sympathetic ganglia. These binding sites can be selectively labeled with tritiated pirenzepine (^3 H-PZ). The M2 -type receptors predominate in the heart and the ileum and can be labeled with tritiated N-methyl-scopolamine (^3 H-NMS). The selectivity of the products of the invention with respect to the M1 and M2 sites was determined by studying their in vitro interaction with ^3 H-PZ and ^3 H-NMS firmly bound with a high affinity to rat hippocampus membranes and smooth guinea-pig ileum muscle, respectively.
The interaction with the M2 -type muscarinic receptors was studied by in vitro measurement, on a smooth guinea-pig ileum muscle homogenate, of the displacement of tritiated N-methylscopolamine from its specific binding sites. […] The final volume is 1 ml. The reaction is stopped by centrifugation for 5 minutes at 15,000×g. The non-specific binding is determined in the presence of 10 mM atropine sulfate.
The IC50 for ^3 H-PZ displacement represents the affinity for the M1 receptor; the IC50 for ^3 H-NMS displacement represents the affinity for the M2 receptor.

[2] = molecular target: T2, M1 -type muscarinic cholinergic receptor (Rattus norvegicus, UniProt P08482); assay: biochemical; format: binding; conditions: for IC50: rat hippocampus homogenate, 3H-PZ 1 nM, 2 hours at 4° C., pH 7.40, read-out: IC50 3H-PZ (M1); for ratio R of the IC50 values for the M1 and M2 receptors: selectivity, values correspond to IC50 M2 / IC50 M1
T2 sequence (P08482 1-460): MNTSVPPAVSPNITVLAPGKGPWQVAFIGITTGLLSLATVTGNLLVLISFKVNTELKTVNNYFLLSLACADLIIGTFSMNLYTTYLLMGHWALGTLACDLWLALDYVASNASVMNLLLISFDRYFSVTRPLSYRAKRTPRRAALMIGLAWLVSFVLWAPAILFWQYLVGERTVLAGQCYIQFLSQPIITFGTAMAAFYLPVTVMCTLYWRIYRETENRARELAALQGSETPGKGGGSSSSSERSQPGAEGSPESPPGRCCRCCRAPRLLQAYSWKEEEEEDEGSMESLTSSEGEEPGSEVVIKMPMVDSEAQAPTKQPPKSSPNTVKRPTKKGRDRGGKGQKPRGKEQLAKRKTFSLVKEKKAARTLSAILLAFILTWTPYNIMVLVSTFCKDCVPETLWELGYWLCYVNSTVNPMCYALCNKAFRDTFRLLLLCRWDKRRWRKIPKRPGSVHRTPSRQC
Protocol: The interaction of the molecules with the M1 -type muscarinic receptors was studied by in vitro measurement, on a rat hippocampus homogenate, of the displacement of tritiated pirenzepine from its specific binding sites. Aliquots (10 μl) of a 5% (w/v) rat hippocampus homogenate in an Na2 HPO4 buffer (50 mM, pH 7.40) are incubated for 2 hours at 4° C. in the presence of ^3 H-PZ (76 Ci/mmol; final concentration 1 nM) and increasing concentrations of the test product. The final volume is 2 ml. The reaction is stopped by centrifugation for 10 minutes at 50,000×g. After decantation and washing of the residues, the bound radioactivity is counted by liquid scintillation. The non-specific binding is determined in the presence of 10 μM atropine sulfate.

[3] = tested on: M1 central muscarinic cholinergic receptors; assay: Antagonism of rotations induced by intrastriatal injection of pirenzepine in mice; format: in vivo, mice (Swiss, CD 1); conditions: for Pirenzepine antagonism ED50 i.p.: 15 minutes before intrastriatal pirenzepine 1 μg; for Pirenzepine antagonism ED50 p.o.: 30 minutes before intrastriatal pirenzepine 1 μg
Protocol: Pirenzepine (PZ) is a specific antagonist of the M1 central muscarinic cholinergic receptors. The intrastriatal injection of PZ into mice induces rotatory behavoir. The antagonism of this behavoir by the products according to the invention was studied.
The products according to the invention are administered either intraperitoneally (i.p.) or orally (p.o.) after solubilization in distilled water or suspension in a 5% solution of gum arabic. The control animals receive the pure solvent under the same conditions.
The animals used are female mice (Swiss, CD 1, Charles River, France) with a body weight of between 25 and 30 grams.
The pirenzepine is dissolved in a phosphate buffer and the pH of the solution is 6.
The test products or their solvents are administered in a volume of 0.4 ml per 20 g of body weight, either by i.p. injection or orally via an esophageal tube.
The number of contralateral rotations (rotations in the opposite direction to the side injected) was counted for three 2-minute periods after injection of the pirenzepine: 2nd to 4th, 8th to 10th and 13th to 15th minutes. Each treatment consists of 3 to 4 doses and 10 animals per dose. The total number of rotations and the percentage antagonism with respect to the control group are calculated for each treatment.

Compound	IC50 [1] [µM]	IC50 [2] [µM]	ratio R of the IC50 values for the M1 and M2 receptors [2]	Pirenzepine antagonism ED50 i.p. [3] [mg/kg]	Pirenzepine antagonism ED50 p.o. [3] [mg/kg]
Cc1cc(C)c(-c2csc(NCCc3ccccn3)n2)c(C)c1 [SR 44905 A]	60	2.4	25	–	–
CCN(CC)CCNc1nc(C23CC4CC(CC(C4)C2)C3)cs1 [SR 44468 A]	22	1.2	18	–	–
c1ccc2c(c1)CCCc1sc(NCCCN3CCOCC3)nc1-2 [SR 44392 A]	–	–	–	3	–
Cc1cc(C)c(-c2csc(NCCCN(C(C)C)C(C)C)n2)c(C)c1 [SR 44887 A]	–	–	–	–	0.3
CC(C)(c1ccccc1)c1csc(NCc2cccnc2)n1 [SR 45106 A]	> 100	3	> 33	–	–
COc1ccccc1-c1csc(NCCCN(C)C)n1 [SR 44465 A]	40	2.6	15	–	–
Cc1cc(C)c(-c2csc(NCCCN)n2)c(C)c1 [SR 44949 A, 2-[(3-Aminopropyl)amino]-4-(2,4,6-trimethylphenyl)thiazole]	–	–	–	–	10
CCN(CC)CCNc1nc(C)c(-c2ccccc2)s1 [SR 44436 A]	50	1.7	29	–	–
CCN(CC)CCNc1nc(C)cs1 [SR 44422 A]	100	8.1	12	–	–
CN(C)CCCNc1nc(-c2cccc([N+](=O)[O-])c2)cs1 [SR 44791 A]	40	5	8	–	–
c1ccc(-c2cnc(NCCN3CCCCC3)s2)cc1 [SR 44490 A]	25	1.5	16	–	–
c1ccc(-c2cnc(NCCN3CCOCC3)s2)cc1 [SR 44285 A]	–	–	–	3	–
Cc1cc(C)c(-c2csc(NCc3ccccn3)n2)c(C)c1 [SR 44813 A]	> 100	6	> 17	–	–
c1ccc2cc(-c3csc(NCCN4CCCCC4)n3)ccc2c1 [SR 44516 A]	75	3.4	22	–	–
CN(C)CCCNc1ncc(-c2ccccc2)s1 [SR 44967 A]	40	1.8	22	–	–
c1csc(-c2csc(NCCN3CCOCC3)n2)c1 [SR 44575 A]	> 100	7	> 14	–	–
c1ccc(-c2nc(NCCc3ccccn3)sc2-c2ccccc2)cc1 [SR 44906 A]	> 100	2.4	> 42	–	–
Cc1sc(NCCCN(C)C)nc1-c1ccccc1 [SR 44769 A]	30	2	15	–	–
CCCCN(CCCC)CCNc1nc(-c2ccc(F)cc2)cs1 [SR 44451 A]	80	6	13	–	–
Cc1nc(NCCN2CCCC2)sc1-c1ccccc1 [SR 44488 A]	34	1.7	20	–	–
CCN(CC)CCNc1nc(-c2ccc([N+](=O)[O-])cc2)cs1 [SR 44469 A]	60	2.6	23	–	–
c1ccc(-c2nc(NCc3cccnc3)sc2-c2ccccc2)cc1 [SR 44904 A]	> 100	6	> 17	–	–
Cc1cc(C)c(-c2csc(NCCC3CCCN3C)n2)c(C)c1 (stereo not shown) [SR 44814 A]	–	1.4	7	–	0.2
CCN(CC)CCCNc1nc(-c2ccccc2)c(C)s1 [SR 44434 A]	70	1.5	46	–	–
Cc1ccc(-c2csc(NCCCN(C)C)n2)cc1 [SR 44832 A]	> 100	2.4	> 42	–	–
c1ccc(-c2cnc(NCCc3ccncc3)s2)cc1 [SR 44966 A]	100	4.5	22	–	–
CCCCN(CCCC)CCNc1ncc(-c2ccccc2)s1 [SR 44492 A]	28	3.6	8	–	–
NCCCNc1nc(-c2ccc(F)cc2)cs1 [SR 44886 A, 2-[(3-Aminopropyl)amino]-4-(4-fluorophenyl)thiazole]	70	6.3	11	–	–

Further molecules by falling IC50 [2], results first:

IC50 [1] [µM]	IC50 [2] [µM]	ratio R of the IC50 values for the M1 and M2 receptors [2]	Compound	Pirenzepine antagonism ED50 i.p. [3] [mg/kg]	Pirenzepine antagonism ED50 p.o. [3] [mg/kg]
60	1	60	c1ccc(-c2cnc(NCCN3CCCC3)s2)cc1 [SR 44438 A]	–	–
8.5	0.8	10	CC(C)N(CCNc1ncc(-c2ccccc2)s1)C(C)C [SR 44491 A]	–	–
> 100	0.6	> 167	Fc1ccc(-c2csc(NCc3ccncc3)n2)cc1 [SR 44840 A]	–	–
40	0.6	67	CN1CCCC1CCNc1nc(-c2ccc(F)cc2)cs1 (stereo not shown) [SR 44786 A]	–	–
3	0.43	7	CCN(CC)CCNc1nc(-c2ccccc2)c(-c2ccccc2)s1 [SR 44437 A]	–	–
2	0.3	6	Cc1nc(NCCN(C(C)C)C(C)C)sc1-c1ccccc1 [SR 44489 A]	–	–
> 100	0.28	> 360	Cc1cc(C)c(-c2csc(NCc3ccncc3)n2)c(C)c1 [SR 44864 A]	–	–
3.4	0.2	17	CCN(CC)CCCNc1nc(Cc2ccccc2)c(-c2ccccc2)s1 [SR 44515 A]	–	–
24	0.2	120	CN(C)CCCNc1nc(C2CCCCC2)cs1 [SR 44574 A]	–	–
5	0.13	38	CC(C)N(CCCNc1nc(-c2ccc(F)cc2F)cs1)C(C)C [SR 44916 A]	–	–
4	0.13	31	Cc1cc(C)c(-c2csc(NCCN(C(C)C)C(C)C)n2)c(C)c1 [SR 44908 A]	–	–
6	0.12	50	CCc1nc(NCCCN(CC)CC)sc1-c1ccccc1 [SR 44963 A]	–	–
